In brackets after ≈: the same amount, converted by molar mass.
How the values were obtained:
Assay type in all cases: physicochemical
[1] = Equilibrium solubility of trelagliptin crystal forms in different dissolution media (UV-vis at 279 nm); conditions: for Solubility / solubility at 24 h: 24 h; for solubility at 24 h: 37 °C, thermodynamic from solid
[2] = High-humidity stability test (XRPD); conditions: relative humidities of 90% and 75% at 25° C. for 10 d, XRPD on day 5 and day 10
Procedure: (§1) According to the Guidelines for Stability Tests of Active Pharmaceutical Ingredients (APIs) and Formulations, the stability of the novel crystal form F of trelagliptin was tested.
High-humidity test: The novel crystal form F of trelagliptin was spread in petri dishes, and then the petri dishes were placed in constant-temperature and constant-humidity incubators respectively with relative humidities of 90% and 75% at 25° C. for 10 d, where on day 5 and day 10, a sample was taken and subjected to XRPD analysis to determine whether the crystal form was stable.

Moisture absorption = conditions: 80% RH, 25° C., 24 h
Procedure: The dried novel crystal form F of trelagliptin prepared in this example was spread in a weighing bottle, then placed in a constant-temperature and constant-humidity incubator with a humidity of 80% RH and a temperature of 25° C. for 24 h, and then weighed.

[3] = High-temperature stability test (XRPD); conditions: 60° C. for 10 d, XRPD on day 5 and day 10
Procedure: as §1
(§2) High-temperature test: The novel crystal form F of trelagliptin was spread in a petri dish and then placed in a drying oven at 60° C. for 10 d, where on day 5 and day 10, a sample was taken and subjected to XRPD analysis to determine whether the crystal form was stable.

[4] = Strong light irradiation stability test (XRPD); conditions: illuminance 4500 lx±500 lx for 10 d, XRPD on day 5 and day 10
Procedure: as §1
as §2, with “Strong light irradiation” for “High-temperature”, “strong light irradiation test chamber with illuminance of 4500 lx±500 lx” for “drying oven at 60° C.”

SMILES	Solubility ([1]; buffer solution pH = 1.2, 37° C.) [mg/mL]	Solubility ([1]; buffer solution pH = 7.4, 37° C.) [mg/mL]	solubility at 24 h ([1]; deionized water, water) [mg/mL]	Solubilities compared with the original crystal form I ([1]; deionized water, pH 6.8, pH 7.4 and pH 1.2 buffer solutions)	Solubility ([1]; sodium phosphate buffer solution pH = 6.8, 37° C.) [mg/mL]	Stability of the crystal form [2]	Weight gain (moisture absorption) (Moisture absorption)	Stability of the crystal form [3]	Stability of the crystal form [4]	solubility at 24 h ([1]; buffer solution, pH 1.2, simulated gastric fluid, buffer solution pH = 1.2, 37° C.) [mg/mL]
Cn1c(=O)cc(N2CCC[C@@H](N)C2)n(Cc2cc(F)ccc2C#N)c1=O [Crystal form F, trelagliptin]	73.61 (≈ 206 mM)	30.54 (≈ 85.5 mM)	8.51 (≈ 23.8 mM)	significantly-higher solubilities	32.78 (≈ 91.7 mM)	no impact on the stability	less than 0.4%	no impact on the stability	no impact on the stability	–
Cn1c(=O)cc(N2CCC[C@@H](N)C2)n(Cc2cc(F)ccc2C#N)c1=O [Crystal form I, trelagliptin]	–	–	–	–	–	–	–	–	–	42.7 (≈ 119 mM)

Reference: patent US12264145B2, “Crystal form F of trelagliptin and preparation method thereof” (GUANGDONG UNIVERSITY OF TECHNOLOGY, priority 2023, dated 2025)
